Measured values taken from BigSolDB 2.1.

Clc1ccc(COC(Cn2ccnc2)c2ccc(Cl)cc2Cl)cc1.O=[N+]([O-])O (centres undefined)
solubility (mole fraction)
Details | 278.15 K | 283.15 K | 288.15 K | 293.15 K | 298.15 K | 303.15 K | 308.15 K | 313.15 K | 318.15 K
in 1,4-dioxane | – | – | 0.000262 | 0.000317 | 0.000393 | 0.000482 | 0.000596 | 0.000729 | 0.000897
in ethanol | 0.000526 | 0.000656 | 0.000832 | 0.00102 | 0.00125 | 0.00153 | 0.00189 | 0.00228 | 0.00275
in methanol | 0.0015 | 0.00181 | 0.00221 | 0.00266 | 0.00328 | 0.00397 | 0.00479 | 0.00577 | 0.00687
in water | 1.67e-05 | 2.05e-05 | 2.47e-05 | 2.93e-05 | 3.44e-05 | 3.98e-05 | 4.56e-05 | 5.16e-05 | 5.78e-05
